Results: patent publication US8138197B2, “Spirochromanon derivatives” (MSD K.K., priority 2007, dated 2012)

Key:
human ACC2 = human ACC2 (Homo sapiens, UniProt O00763); assay: Acetyl CoA carboxylase (ACC) activity inhibition test, human ACC2; assay type: biochemical; settings: 1 μmol/liter compound; [14C] bicarbonate fixation, 37° C., 40 minutes; read-out: Inhibition (%) by 1 μmol/liter Chemical, human ACC2
Protocol: (§1) A. Pharmacological Test Example (Acetyl CoA Carboxylase (ACC) Activity Inhibition Test)
(§2) A test compound is dissolved in dimethyl sulfoxide (DMSO) to a concentration of 10 mM and then diluted with DMSO to give a 100-fold concentrated solution of the compound compared with target assay concentration. The ACC enzyme activity inhibition test is carried out according to a modification of Thampy & Wakil's method (J. Biol. Chem., Vol. 260, pp. 6318-6323 (1985)). Concretely, 0.8 μl of the diluted test compound is added to each well of 96-well assay plate (Perkin Elmer Opti Plate), then 40 μl of a substrate solution (50 mM Hepes sodium (pH 7.5), 2 mM DTT, 10 mM ATP, 500 μM acetyl CoA, 0.17 mM NaH[^14C]O3 (58 mCi/mmol, by Amersham), 8 mM NaHCO3) is added to each well, and 40 μL of an enzyme solution ([…] human ACC1 or human ACC2, 50 mM Hepes sodium (pH 7.5), 2 mM DTT, 40 mM MgCl2, 40 mM tripotassium citrate 1 mg/ml fetal bovine serum albumin) is added thereto. Then, the upper side of the plate is sealed up, and the plate is incubated with gently stirring at 37° C. for 40 minutes. Next, 20 μl of 1 N HCl is added to each well to stop the enzyme reaction, and the assay plate is stirred overnight to remove the unreacted NaH[^14C]O3. Next, 100 μl of a scintillator (Perkin Elmer's Microscinti 40) is added to each well and the plate is stirred, then the radioactivity of the fixed [^14C] is counted using a microplate scintillation counter (Perkin Elmer's Topcount), the radioactivity of which represents the enzyme activity in each well. The human ACC1 and human ACC2 enzyme-inhibition activities of the test compounds are calculated, based on the radioactivity of the well added by DMSO without test compound as a control.

human ACC1 = human ACC1 (Homo sapiens, UniProt Q13085); assay: Acetyl CoA carboxylase (ACC) activity inhibition test, human ACC1; assay type: biochemical; settings: 1 μmol/liter compound; [14C] bicarbonate fixation, 37° C., 40 minutes; read-out: Inhibition (%) by 1 μmol/liter Chemical, human ACC1
Protocol: as §1, §2

Sequence of human ACC2 (O00763 whole entry): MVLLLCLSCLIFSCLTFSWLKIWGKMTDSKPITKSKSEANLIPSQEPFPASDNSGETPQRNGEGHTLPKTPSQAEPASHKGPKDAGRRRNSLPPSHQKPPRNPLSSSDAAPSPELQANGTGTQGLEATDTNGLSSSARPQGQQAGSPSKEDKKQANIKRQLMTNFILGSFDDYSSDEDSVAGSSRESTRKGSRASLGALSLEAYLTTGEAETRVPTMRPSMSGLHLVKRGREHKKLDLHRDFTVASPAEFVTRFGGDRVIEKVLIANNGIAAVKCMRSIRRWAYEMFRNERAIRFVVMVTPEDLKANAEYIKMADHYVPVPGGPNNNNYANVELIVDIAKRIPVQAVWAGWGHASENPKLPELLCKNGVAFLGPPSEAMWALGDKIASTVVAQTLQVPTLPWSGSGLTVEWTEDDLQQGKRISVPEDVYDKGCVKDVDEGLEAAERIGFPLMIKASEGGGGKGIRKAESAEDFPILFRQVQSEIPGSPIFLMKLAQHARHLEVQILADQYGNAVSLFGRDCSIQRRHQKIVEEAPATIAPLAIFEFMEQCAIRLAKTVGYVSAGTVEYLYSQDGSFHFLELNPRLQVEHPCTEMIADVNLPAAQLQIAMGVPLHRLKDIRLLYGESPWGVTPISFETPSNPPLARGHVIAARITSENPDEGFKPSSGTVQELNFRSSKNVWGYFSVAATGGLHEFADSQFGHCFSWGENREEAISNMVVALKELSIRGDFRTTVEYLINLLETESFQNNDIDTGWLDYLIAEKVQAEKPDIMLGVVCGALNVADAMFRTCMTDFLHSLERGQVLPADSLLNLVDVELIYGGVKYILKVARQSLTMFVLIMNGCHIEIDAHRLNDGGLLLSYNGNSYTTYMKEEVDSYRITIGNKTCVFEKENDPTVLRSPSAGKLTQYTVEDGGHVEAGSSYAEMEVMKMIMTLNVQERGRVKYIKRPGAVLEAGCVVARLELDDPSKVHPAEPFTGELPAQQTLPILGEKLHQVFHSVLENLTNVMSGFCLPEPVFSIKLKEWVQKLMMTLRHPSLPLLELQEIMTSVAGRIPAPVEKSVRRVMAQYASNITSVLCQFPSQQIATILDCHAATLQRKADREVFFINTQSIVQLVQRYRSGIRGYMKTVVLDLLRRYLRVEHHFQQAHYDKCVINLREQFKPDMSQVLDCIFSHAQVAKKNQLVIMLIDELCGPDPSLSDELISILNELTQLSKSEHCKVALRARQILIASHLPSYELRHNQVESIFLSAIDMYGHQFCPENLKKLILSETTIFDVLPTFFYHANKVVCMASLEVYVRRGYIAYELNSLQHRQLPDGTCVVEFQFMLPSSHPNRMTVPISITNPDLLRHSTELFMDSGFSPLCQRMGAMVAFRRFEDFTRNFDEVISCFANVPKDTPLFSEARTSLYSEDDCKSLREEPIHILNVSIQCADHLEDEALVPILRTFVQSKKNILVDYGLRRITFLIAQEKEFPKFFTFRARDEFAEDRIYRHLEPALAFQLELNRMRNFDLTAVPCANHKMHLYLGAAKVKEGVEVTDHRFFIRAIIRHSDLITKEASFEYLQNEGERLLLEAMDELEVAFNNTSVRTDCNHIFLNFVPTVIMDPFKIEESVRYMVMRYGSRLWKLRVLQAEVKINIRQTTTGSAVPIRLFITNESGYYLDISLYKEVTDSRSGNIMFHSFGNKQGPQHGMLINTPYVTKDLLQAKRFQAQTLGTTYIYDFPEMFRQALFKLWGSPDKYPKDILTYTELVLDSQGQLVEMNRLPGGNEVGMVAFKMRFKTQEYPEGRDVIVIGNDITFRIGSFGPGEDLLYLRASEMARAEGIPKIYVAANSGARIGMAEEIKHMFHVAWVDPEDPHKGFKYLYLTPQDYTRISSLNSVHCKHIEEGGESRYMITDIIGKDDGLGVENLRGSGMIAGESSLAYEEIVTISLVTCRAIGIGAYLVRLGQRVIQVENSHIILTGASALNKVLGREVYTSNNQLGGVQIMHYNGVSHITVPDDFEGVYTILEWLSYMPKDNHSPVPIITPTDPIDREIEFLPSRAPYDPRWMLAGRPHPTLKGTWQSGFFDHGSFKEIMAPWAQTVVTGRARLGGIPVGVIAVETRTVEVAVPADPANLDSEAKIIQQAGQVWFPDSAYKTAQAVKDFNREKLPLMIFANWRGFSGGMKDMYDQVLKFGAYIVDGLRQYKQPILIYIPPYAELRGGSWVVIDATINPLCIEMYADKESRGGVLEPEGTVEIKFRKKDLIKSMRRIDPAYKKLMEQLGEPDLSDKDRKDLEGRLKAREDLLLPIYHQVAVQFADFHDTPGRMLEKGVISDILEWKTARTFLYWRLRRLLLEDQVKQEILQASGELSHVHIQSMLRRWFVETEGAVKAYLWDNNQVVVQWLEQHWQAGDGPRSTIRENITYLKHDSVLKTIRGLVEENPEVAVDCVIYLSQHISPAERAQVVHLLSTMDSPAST

`Cn1cc(-c2ccc3c(c2)C(=O)CC2(CCN(C(=O)c4cc(-c5nnn[nH]5)c5ccn(C6CC6)c5c4)CC2)O3)cn1` [Example 42, 1′-{[1-Cyclopropyl-4-(tetrazol-5-yl)-1H-indol-6-yl]carbonyl}-6-(1-methyl-1H-pyrazol-4-yl)spiro[chroman-2,4′-piperidin]-4-one] gave an inhibition at 1 µM (human ACC2) of 99% and an inhibition at 1 µM (human ACC1) of 98%.
`CCOc1cc(C(=O)N2CCC3(CC2)CC(=O)c2cc(-c4nnn[nH]4)ccc2O3)cc(OC)c1-c1cnn(C)c1` [Example 29, 1′-{[3-Ethoxy-5-methoxy-4-(1-methyl-1H-pyrazol-4-yl)phenyl]carbonyl}-6-(tetrazol-5-yl)spiro[chroman-2,4′-piperidin]-4-one] showed an inhibition at 1 µM (human ACC2) of 99% and an inhibition at 1 µM (human ACC1) of 99%.
Work on `CCOc1cc(C(=O)N2CCC3(CC2)CC(=O)c2cc(-c4ccc(C(N)=O)cn4)ccc2O3)cc(OC)c1-c1cnn(C)c1` [Example 77, 6-{1′-[3-ethoxy-5-methoxy-4-(1-methyl-1H-pyrazol-4-yl)benzoyl]-4-oxospiro[chroman-2,4′-piperidin]-6-yl}nicotinamide] yielded an inhibition at 1 µM (human ACC2) of 99% and an inhibition at 1 µM (human ACC1) of 99%.
Compound `CCOc1cc(C(=O)N2CCC3(CC2)CC(=O)c2cc(-c4ccnc(C(=O)O)c4)ccc2O3)cc(OCC)c1-c1cnn(C)c1` [Example 37, 4-(1′-{[3,5-Diethoxy-4-(1-methyl-1H-pyrazol-4-yl)phenyl]carbonyl}-4-oxospiro[chroman-2,4′-piperidin]-6-yl)pyridine-2-carboxylic acid] has an inhibition at 1 µM (human ACC2) of 99% and an inhibition at 1 µM (human ACC1) of 100%.
`COc1cc(C(=O)N2CCC3(CC2)CC(=O)c2cc(-c4ccc(C(N)=O)cn4)ccc2O3)cc(OC)c1-c1cnn(C)c1` [Example 68, 6-{1′-[3,5-dimethoxy-4-(1-methyl-1H-pyrazol-4-yl)benzoyl]-4-oxospiro[chroman-2,4′-piperidin]-6-yl}nicotinamide] was tested, and the inhibition at 1 µM (human ACC2) was 99% and the inhibition at 1 µM (human ACC1) was 99%.
`Cc1nn(-c2ccccn2)c2sc(C(=O)N3CCC4(CC3)CC(=O)c3cc(-c5nnn[nH]5)ccc3O4)cc12` [Example 51, 1′-[(3-Methyl-1-pyridin-2-yl-1H-thieno[2,3-c]pyrazol-5-yl)carbonyl]-6-(tetrazol-5-yl)spiro[chroman-2,4′-piperidin]-4-one] was tested, and the inhibition at 1 µM (human ACC2) was 89% and the inhibition at 1 µM (human ACC1) was 98%.
Work on `CCOc1cc(C(=O)N2CCC3(CC2)CC(=O)c2cc(-c4nnn[nH]4)ccc2O3)cc(OCC)c1-c1cnn(C)c1` [Example 12, 1′-{[3,5-Diethoxy-4-(1-methyl-1H-pyrazol-4-yl)phenyl]carbonyl}-6-(tetrazol-5-yl)spiro[chroman-2,4′-piperidin]-4-one] yielded an inhibition at 1 µM (human ACC2) of 99% and an inhibition at 1 µM (human ACC1) of 100%.
In the case of `CCOc1cc(C(=O)N2CCC3(CC2)CC(=O)c2cc(-c4cncc(C(=O)O)c4)ccc2O3)cc(OCC)c1-c1cnn(C)c1` [Example 25, 5-(1′-{[3,5-Diethoxy-4-(1-methyl-1H-pyrazol-4-yl)phenyl]carbonyl}-4-oxospiro[chroman-2,4′-piperidin]-6-yl)pyridine-3-carboxylic acid], the inhibition at 1 µM (human ACC2) is reported as 99% and the inhibition at 1 µM (human ACC1) is reported as 100%.
`CCOc1cc(C(=O)N2CCC3(CC2)CC(=O)c2cc(-c4nnn(COC(=O)C(C)(C)C)n4)ccc2O3)cc(OC)c1-c1cnn(C)c1` [Example 63, (5-{1′-[3-ethoxy-5-methoxy-4-(1-methyl-1H-pyrazol-4-yl)benzoyl]-4-oxospiro[chroman-2,4′-piperidin]-6-yl}-2H-tetrazol-2-yl)methylpivalate] showed an inhibition at 1 µM (human ACC2) of 97% and an inhibition at 1 µM (human ACC1) of 93%.
`COc1cc(C(=O)N2CCC3(CC2)CC(=O)c2cc(-c4nnn[nH]4)ccc2O3)cc(OC)c1-c1ccccc1` [Example 5] was tested, and the inhibition at 1 µM (human ACC2) was 97% and the inhibition at 1 µM (human ACC1) was 94%.
`CCOc1cc(C(=O)N2CCC3(CC2)CC(=O)c2cc(-c4ccc(C(=O)O)cn4)ccc2O3)cc(OCC)c1-c1cnn(C)c1` [Example 71, Sodium 6-{1′-[3,5-diethoxy-4-(1-methyl-1H-pyrazol-4-yl)benzoyl]-4-oxospiro[chroman-2,4′-piperidin]-6-yl}nicotinate] showed an inhibition at 1 µM (human ACC2) of 99% and an inhibition at 1 µM (human ACC1) of 99%.
For `Cn1nc(-c2ccccc2)c2ccc(C(=O)N3CCC4(CC3)CC(=O)c3cc(-c5nnn[nH]5)ccc3O4)cc21` [Example 56, 1′-[(1-Methyl-3-phenyl-1H-indazol-6-yl)carbonyl]-6-(tetrazol-5-yl)spiro[chroman-2,4′-piperidin]-4-one], the inhibition at 1 µM (human ACC2) was 98% and the inhibition at 1 µM (human ACC1) was 99%.
Work on `CCOc1cc(C(=O)N2CCC3(CC2)CC(=O)c2cc(-c4cnn(C)c4)ccc2O3)cc(OC)c1-c1cnn(C)c1` [Example 79, 1′-[3-Ethoxy-5-methoxy-4-(1-methyl-1H-pyrazol-4-yl)benzoyl]-6-(1-methyl-1H-pyrazol-4-yl)spiro[chroman-2,4′-piperidin]4-one] yielded an inhibition at 1 µM (human ACC2) of 99% and an inhibition at 1 µM (human ACC1) of 99%.
